In brackets after ≈: the same amount, converted by molar mass. Residues, ends and D or L forms follow the SMILES beside them. No end group written: not given here.
Columns and labels:
A. baumannii 4367992 = assay: MIC by broth microdilution; format: cell-based, Acinetobacter baumannii; settings: 37 °C, 24 h; for MIC / inhibitory concentration against A. baumannii: strain not given, broth microdilution
Procedure: (§1) Evaluation of the MIC of synthetic peptides was performed using broth microdilution techniques according to the guidelines of the Clinical and Laboratory Standards Association (CLSI). The antimicrobial spectrum and biological activity of the above chemically synthesized peptides were tested against six Gram-positive bacteria, five Gram-negative bacteria and one fungus. Overnight cultures of the 11 bacteria were grown in MHB at 37 °C and C. albicans was grown in Sabouraud dextrose broth (SDB) medium (Sangon, Shanghai, China) and cultured at 37 °C to mid-log phase and diluted to 1.5 × 10^6 CFU/ml. In a polypropylene 96-well round-bottom plate, 50 μl of bacteria was mixed with 50 μl of designed synthetic peptide dissolved in sterile distilled water (final concentration of 0–64 μM). Sterile distilled water was used as a negative control and polymyxin B dissolved in sterile distilled water as a positive control.

A. baumannii (4367992) = assay: Time-killing assay (growth curve, absorbance at 600 nm); format: cell-based, Acinetobacter baumannii
Procedure: The effect of peptides on the growth of an A. baumannii (4367992) isolate was examined as follows: the strain was cultured in nutrient agar for 18–20 h and adjusted to 0.5 McFarland units with MHB medium, then diluted 1:20 in MHB medium. Each peptide was added to one culture tube at a final concentration of 1× MIC or 2× MIC. […] The cultures were incubated for 24 h at 37 °C with shaking at 200× rpm, and the absorbance at 600 nm of 1 ml aliquots was recorded at 0.5–2 h intervals.

[1] = system: extensive-drug-resistant A. baumannii (4367992); assay: Leakage of 260 nm absorbing material; format: cell-based, Acinetobacter baumannii; settings: 0.5× MIC and 2× MIC, 0–8 h, 37 °C, 1 × 10^6 CFU/ml; three independent experiments
Procedure: The reference method was slightly modified, taking the logarithmic growth phase of extensive-drug-resistant A. baumannii (4367992) as detected bacteria. Five millilitres of bacterial suspension (1 × 10^6 CFU/ml) was treated with different concentrations of antimicrobial peptides (0.5× MIC, 2× MIC). After being placed at 37 °C and 150× rpm, aliquots (0.5 ml) of the treated bacterial suspension were removed at different intervals (0, 0.5, 1, 2, 4, 6 and 8 h). The aliquots were centrifuged (1000× rpm, 5 min) and the absorbance of supernatant was measured at 260 nm, using PBS as the control.

[2] = system: tested microorganisms (Gram-positive bacteria, Gram-negative bacteria, one fungus); assay: MIC by broth microdilution, summary over the panel of tested microorganisms; format: cell-based; settings: at concentrations up to 32 μM
Procedure: as §1

Compound: GWLKKIGKKIERVGQNTRDATIQAIGVAQQAANVAATLKGK [Cec4]
- MIC / inhibitory concentration against A. baumannii (A. baumannii 4367992): 0.5 µM
- time-kill kinetics, killing pattern (A. baumannii (4367992); A. baumannii in the logarithmic growth phase): rapid and concentration-dependent killing pattern
- leakage of 260 nm absorbing material (maximum absorbance at 260 nm) [1]: dose-dependent increase

Compound: GWLKDFGRRIERVGQHTRDATIQAIGVAQQATDVAATLKGK [Cec9]
- inhibitory effect on the other experimental strains (other than E. coli) [2]: no inhibitory effect

Compound: GWLKKVGKKIERVGQHTRDATIQGLGVAQQAANVVATVKGK [Cec3]
- MIC / inhibitory concentration against A. baumannii (A. baumannii 4367992): 32 µM

Compound: CC[C@H](C)CCCCC(=O)N[C@@H](CCN)C(=O)N[C@H](C(=O)N[C@@H](CCN)C(=O)N[C@H]1CCNC(=O)[C@H]([C@@H](C)O)NC(=O)[C@H](CCN)NC(=O)[C@H](CCN)NC(=O)[C@H](CC(C)C)NC(=O)[C@@H](Cc2ccccc2)NC(=O)[C@H](CCN)NC1=O)[C@@H](C)O [polymyxin B, reference compound] (HELM PEPTIDE1{[CC[C@H](C)CCCCC(=O)[*:2]].[Dab].T.[Dab].[Dab].[Dab].[dF].L.[Dab].[Dab].T}$PEPTIDE1,PEPTIDE1,5:R3-11:R2$$$V2.0; N-terminus assumed; bridges inferred)
- MIC (A. baumannii 4367992; A. baumannii 4367992 (extensive-drug-resistant isolate), broth microdilution (CLSI), MHB, visual growth): 1.05 µM (≈ 1.26 µg/mL)
- duration of antibacterial effect on A. baumannii (A. baumannii (4367992); Cec4 at 1× MIC and 2× MIC, polymyxin B at 1× MIC (1.05 μM), MHB, 37 °C, 200 rpm, absorbance 600 nm over 24 h, three independent experiments): ≤ 12 h

Reference: paper PMC6857134, “Antimicrobial functional divergence of the cecropin antibacterial peptide gene family in Musca domestica” (Parasites & Vectors, 2019)
